Assays:
Test in all cases: KINOMEscan competition binding
Conditions in all cases: compound 10.0 µM
[1] = biological target: ACVR2B (human) (UniProt Q13705)
[2] = biological target: AURKB (human) (UniProt Q96GD4)
[3] = biological target: BRSK2 (human) (UniProt Q8IWQ3)
[4] = biological target: CAMKK1 (human) (UniProt Q8N5S9)
[5] = biological target: CDK16 (human) (UniProt Q00536)
[6] = biological target: CDK7 (human) (UniProt P50613)
[7] = biological target: CHUK (human) (UniProt O15111)
[8] = biological target: CLK2 (human) (UniProt P49760)
[9] = biological target: CLK4 (human) (UniProt Q9HAZ1)
[10] = biological target: CSNK1G1 (human) (UniProt Q9HCP0)
[11] = biological target: DAPK2 (human) (UniProt Q9UIK4)
[12] = biological target: DCLK3 (human) (UniProt Q9C098)
[13] = biological target: DMPK (human) (UniProt Q09013)
[14] = biological target: DYRK1B (human) (UniProt Q9Y463)
[15] = system: EGFR (human), P00533 [747-751 del / S ins]
[16] = system: EGFR (human), P00533 [G719S]
[17] = system: FLT3 (human), P36888 [D835H]
[18] = system: FLT3 (human), P36888 [N841I]
[19] = biological target: JAK1 JH2 pseudokinase (human) (UniProt P23458)
[20] = biological target: KIT (human) (UniProt P10721)
[21] = system: KIT (human), P10721 [D816V]
[22] = biological target: MAP2K3 (human) (UniProt P46734)
[23] = biological target: MAP4K2 (human) (UniProt Q12851)
[24] = biological target: MAPK15 (human) (UniProt Q8TD08)
[25] = biological target: MYLK3 (human) (UniProt Q32MK0)
[26] = biological target: PHKG2 (human) (UniProt P15735)
[27] = biological target: PIM2 (human) (UniProt Q9P1W9)
[28] = biological target: PIM3 (human) (UniProt Q86V86)
[29] = biological target: PRKD3 (human) (UniProt O94806)
[30] = biological target: RIOK1 (human) (UniProt Q9BRS2)
[31] = biological target: RIOK3 (human) (UniProt O14730)
[32] = biological target: RIPK2 (human) (UniProt O43353)
[33] = biological target: RPS6KA6 KD2 (human) (UniProt Q9UK32)
[34] = biological target: STK11 (human) (UniProt Q15831)
[35] = biological target: STK16 (human) (UniProt O75716)
[36] = biological target: STK17A (human) (UniProt Q9UEE5)
[37] = biological target: STK24 (human) (UniProt Q9Y6E0)
[38] = biological target: TAOK1 (human) (UniProt Q7L7X3)
[39] = biological target: TLK1 (human) (UniProt Q9UKI8)
[40] = biological target: TNK1 (human) (UniProt Q13470)
[41] = biological target: TYK2 JH2 pseudokinase (human) (UniProt P29597)
[42] = biological target: ULK2 (human) (UniProt Q8IYT8)

Sequence of CLK2 (human) (P49760 whole entry, looked up): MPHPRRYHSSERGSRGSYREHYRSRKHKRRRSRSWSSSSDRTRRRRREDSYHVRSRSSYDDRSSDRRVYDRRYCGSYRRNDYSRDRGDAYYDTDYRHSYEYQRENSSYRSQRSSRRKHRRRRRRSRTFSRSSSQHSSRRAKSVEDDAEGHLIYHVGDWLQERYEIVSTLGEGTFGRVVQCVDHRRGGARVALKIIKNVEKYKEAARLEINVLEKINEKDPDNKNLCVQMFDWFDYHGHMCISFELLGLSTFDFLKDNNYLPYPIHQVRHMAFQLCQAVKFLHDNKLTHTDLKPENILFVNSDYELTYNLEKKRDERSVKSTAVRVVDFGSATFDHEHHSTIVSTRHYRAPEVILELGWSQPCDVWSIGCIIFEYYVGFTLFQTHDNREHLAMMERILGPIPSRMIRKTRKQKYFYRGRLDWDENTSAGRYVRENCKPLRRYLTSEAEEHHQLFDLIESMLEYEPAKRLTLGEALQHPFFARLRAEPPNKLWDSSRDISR
Sequence of STK11 (human) (Q15831 whole entry, looked up): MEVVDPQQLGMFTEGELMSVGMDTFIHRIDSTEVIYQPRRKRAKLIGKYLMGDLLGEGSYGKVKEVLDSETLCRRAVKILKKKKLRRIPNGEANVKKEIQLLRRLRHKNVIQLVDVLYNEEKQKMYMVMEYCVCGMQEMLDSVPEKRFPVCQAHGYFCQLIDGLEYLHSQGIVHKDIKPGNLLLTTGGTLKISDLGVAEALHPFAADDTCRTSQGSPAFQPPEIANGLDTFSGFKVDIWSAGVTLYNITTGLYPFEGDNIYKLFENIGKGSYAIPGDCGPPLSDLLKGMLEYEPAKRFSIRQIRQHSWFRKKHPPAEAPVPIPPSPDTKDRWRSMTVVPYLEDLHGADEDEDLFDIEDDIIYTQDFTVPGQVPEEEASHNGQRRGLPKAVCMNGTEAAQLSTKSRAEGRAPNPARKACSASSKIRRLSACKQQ
Sequence of RIOK3 (human) (O14730 whole entry, looked up): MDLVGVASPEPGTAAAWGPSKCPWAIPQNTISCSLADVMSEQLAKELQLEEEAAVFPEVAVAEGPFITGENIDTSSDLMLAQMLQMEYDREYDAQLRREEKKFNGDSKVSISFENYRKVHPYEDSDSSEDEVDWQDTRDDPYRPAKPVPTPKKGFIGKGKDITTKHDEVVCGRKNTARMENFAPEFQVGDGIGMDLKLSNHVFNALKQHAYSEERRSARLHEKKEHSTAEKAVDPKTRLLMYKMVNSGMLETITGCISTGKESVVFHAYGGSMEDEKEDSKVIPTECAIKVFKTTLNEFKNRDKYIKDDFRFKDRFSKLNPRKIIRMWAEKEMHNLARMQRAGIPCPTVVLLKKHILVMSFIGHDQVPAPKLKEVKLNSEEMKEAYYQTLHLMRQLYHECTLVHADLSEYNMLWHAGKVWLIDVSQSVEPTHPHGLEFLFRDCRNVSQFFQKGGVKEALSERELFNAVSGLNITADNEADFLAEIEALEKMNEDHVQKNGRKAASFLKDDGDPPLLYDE
Sequence of DYRK1B (human) (Q9Y463 whole entry, looked up): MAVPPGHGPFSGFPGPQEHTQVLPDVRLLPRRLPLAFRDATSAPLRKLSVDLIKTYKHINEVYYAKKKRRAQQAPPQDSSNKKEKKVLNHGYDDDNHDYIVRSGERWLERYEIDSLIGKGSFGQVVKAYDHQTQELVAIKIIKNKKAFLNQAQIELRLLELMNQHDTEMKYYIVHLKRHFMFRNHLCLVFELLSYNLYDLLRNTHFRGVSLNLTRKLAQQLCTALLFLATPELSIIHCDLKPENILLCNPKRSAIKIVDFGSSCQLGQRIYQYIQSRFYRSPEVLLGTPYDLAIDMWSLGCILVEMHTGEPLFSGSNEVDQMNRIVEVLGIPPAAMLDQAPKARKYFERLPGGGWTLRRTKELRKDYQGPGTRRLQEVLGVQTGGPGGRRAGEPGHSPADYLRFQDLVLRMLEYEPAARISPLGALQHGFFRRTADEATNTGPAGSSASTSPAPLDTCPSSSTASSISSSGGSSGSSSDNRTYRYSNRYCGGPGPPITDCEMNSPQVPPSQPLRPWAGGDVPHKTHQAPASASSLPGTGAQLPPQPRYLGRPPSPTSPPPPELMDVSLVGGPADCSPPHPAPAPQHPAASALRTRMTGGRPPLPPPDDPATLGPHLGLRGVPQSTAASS
Sequence of ACVR2B (human) (Q13705 whole entry, looked up): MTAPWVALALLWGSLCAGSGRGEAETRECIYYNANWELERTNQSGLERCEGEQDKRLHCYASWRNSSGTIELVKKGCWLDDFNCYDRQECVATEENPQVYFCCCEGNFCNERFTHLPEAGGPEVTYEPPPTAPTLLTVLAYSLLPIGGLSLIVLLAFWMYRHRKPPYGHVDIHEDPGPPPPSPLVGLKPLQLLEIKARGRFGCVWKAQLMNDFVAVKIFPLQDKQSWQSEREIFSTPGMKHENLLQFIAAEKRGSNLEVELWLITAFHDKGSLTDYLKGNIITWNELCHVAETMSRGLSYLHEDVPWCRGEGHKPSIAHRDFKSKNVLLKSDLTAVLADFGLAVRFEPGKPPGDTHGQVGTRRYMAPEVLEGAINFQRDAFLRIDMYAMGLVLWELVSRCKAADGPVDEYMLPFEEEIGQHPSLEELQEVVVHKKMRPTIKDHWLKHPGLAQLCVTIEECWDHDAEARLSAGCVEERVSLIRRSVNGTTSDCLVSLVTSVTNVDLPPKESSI
Sequence of PHKG2 (human) (P15735 whole entry, looked up): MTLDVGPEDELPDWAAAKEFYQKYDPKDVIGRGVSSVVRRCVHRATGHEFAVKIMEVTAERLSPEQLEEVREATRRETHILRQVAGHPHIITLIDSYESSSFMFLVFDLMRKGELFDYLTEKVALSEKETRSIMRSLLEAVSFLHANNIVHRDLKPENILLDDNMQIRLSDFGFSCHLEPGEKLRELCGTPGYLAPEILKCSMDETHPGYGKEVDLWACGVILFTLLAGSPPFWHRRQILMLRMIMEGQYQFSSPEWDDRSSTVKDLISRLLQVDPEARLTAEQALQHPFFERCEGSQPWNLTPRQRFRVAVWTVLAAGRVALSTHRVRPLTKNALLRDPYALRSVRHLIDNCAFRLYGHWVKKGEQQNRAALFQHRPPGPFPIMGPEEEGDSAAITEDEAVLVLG
Sequence of TLK1 (human) (Q9UKI8 whole entry, looked up): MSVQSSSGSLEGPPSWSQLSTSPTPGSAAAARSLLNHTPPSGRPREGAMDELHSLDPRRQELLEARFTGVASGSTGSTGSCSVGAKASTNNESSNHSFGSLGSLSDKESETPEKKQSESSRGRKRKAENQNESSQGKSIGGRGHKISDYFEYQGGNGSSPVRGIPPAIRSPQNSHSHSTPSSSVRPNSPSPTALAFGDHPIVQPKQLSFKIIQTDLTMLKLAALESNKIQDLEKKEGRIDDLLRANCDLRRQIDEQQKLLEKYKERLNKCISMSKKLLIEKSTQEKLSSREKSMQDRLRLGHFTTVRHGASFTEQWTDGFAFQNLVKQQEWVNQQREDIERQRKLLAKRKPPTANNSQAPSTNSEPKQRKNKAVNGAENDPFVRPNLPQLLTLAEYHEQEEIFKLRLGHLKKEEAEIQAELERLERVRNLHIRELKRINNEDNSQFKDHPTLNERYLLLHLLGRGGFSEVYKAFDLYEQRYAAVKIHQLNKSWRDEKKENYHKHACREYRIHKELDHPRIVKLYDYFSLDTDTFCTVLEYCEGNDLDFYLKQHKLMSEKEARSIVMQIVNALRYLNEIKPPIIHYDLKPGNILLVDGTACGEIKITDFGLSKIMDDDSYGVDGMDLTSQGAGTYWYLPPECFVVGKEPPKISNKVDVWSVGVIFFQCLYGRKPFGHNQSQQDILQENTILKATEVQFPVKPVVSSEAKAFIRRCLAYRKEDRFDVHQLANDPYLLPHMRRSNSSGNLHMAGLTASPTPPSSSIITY
Sequence of RIPK2 (human) (O43353 whole entry, looked up): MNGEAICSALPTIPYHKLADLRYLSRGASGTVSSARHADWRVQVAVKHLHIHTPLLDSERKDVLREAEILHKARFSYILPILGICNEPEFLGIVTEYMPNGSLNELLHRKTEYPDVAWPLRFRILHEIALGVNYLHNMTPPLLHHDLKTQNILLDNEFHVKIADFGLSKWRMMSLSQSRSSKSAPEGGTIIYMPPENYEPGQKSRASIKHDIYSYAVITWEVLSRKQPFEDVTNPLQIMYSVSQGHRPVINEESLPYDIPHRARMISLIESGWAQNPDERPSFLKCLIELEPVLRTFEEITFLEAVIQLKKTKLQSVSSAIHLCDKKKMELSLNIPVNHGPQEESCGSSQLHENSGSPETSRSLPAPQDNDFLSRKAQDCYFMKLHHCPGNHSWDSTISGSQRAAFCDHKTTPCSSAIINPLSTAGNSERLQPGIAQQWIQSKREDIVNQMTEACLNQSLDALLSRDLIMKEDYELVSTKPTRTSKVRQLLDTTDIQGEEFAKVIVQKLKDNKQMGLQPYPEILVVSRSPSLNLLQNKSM
Sequence of STK16 (human) (O75716 whole entry, looked up): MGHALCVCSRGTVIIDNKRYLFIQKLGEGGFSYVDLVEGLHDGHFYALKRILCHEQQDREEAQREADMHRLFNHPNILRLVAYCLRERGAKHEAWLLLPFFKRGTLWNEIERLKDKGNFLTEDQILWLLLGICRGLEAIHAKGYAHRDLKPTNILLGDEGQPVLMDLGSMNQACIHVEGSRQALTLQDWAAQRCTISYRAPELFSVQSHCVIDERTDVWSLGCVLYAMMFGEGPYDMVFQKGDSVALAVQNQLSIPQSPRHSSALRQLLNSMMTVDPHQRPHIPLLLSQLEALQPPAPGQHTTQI

Q: Which results are given for `COc1cc(N2CCN(C)CC2)ccc1Nc1ncc2c(n1)N(C)c1sccc1C(=O)N2C`?
A: kinase still bound, per cent of control [1]: 100%; kinase still bound, per cent of control [2]: 56%; kinase still bound, per cent of control [3]: 100%; kinase still bound, per cent of control [4]: 57%; kinase still bound, per cent of control [5]: 97%; kinase still bound, per cent of control [6]: 67%; kinase still bound, per cent of control [7]: 46%; kinase still bound, per cent of control [8]: 78%; kinase still bound, per cent of control [9]: 66%; kinase still bound, per cent of control [10]: 89%; kinase still bound, per cent of control [11]: 50%; kinase still bound, per cent of control [12]: 18%; kinase still bound, per cent of control [13]: 100%; kinase still bound, per cent of control [14]: 63%; kinase still bound, per cent of control [15]: 66%; kinase still bound, per cent of control [16]: 72%; kinase still bound, per cent of control [17]: 80%; kinase still bound, per cent of control [18]: 78%; kinase still bound, per cent of control [19]: 78%; kinase still bound, per cent of control [20]: 66%; kinase still bound, per cent of control [21]: 100%; kinase still bound, per cent of control [22]: 39%; kinase still bound, per cent of control [23]: 96%; kinase still bound, per cent of control [24]: 87%; kinase still bound, per cent of control [25]: 86%; kinase still bound, per cent of control [26]: 46%; kinase still bound, per cent of control [27]: 86%; kinase still bound, per cent of control [28]: 62%; kinase still bound, per cent of control [29]: 5.8%; kinase still bound, per cent of control [30]: 71%; kinase still bound, per cent of control [31]: 52%; kinase still bound, per cent of control [32]: 92%; kinase still bound, per cent of control [33]: 6%; kinase still bound, per cent of control [34]: 90%; kinase still bound, per cent of control [35]: 81%; kinase still bound, per cent of control [36]: 96%; kinase still bound, per cent of control [37]: 72%; kinase still bound, per cent of control [38]: 18%; kinase still bound, per cent of control [39]: 74%; kinase still bound, per cent of control [40]: 7%; kinase still bound, per cent of control [41]: 43%; kinase still bound, per cent of control [42]: 1.2%

Q: With `COc1cc(N2CCN(C)CC2)ccc1Nc1ncc2c(n1)N(C)c1ccccc1N(C)C2=O` as the molecule, how does the kinase still bound, per cent of control [1] read?
A: 92%

Q: What about the kinase still bound, per cent of control [2] of the same molecule?
A: 100%

Q: And the kinase still bound, per cent of control [3]?
A: 85%

Q: And the kinase still bound, per cent of control [4]?
A: 73%

Q: What about the kinase still bound, per cent of control [5] of the same molecule?
A: 93%

Q: And the kinase still bound, per cent of control [6]?
A: 100%

Q: What about the kinase still bound, per cent of control [7] of the same molecule?
A: 60%

Q: What about the kinase still bound, per cent of control [8] of the same molecule?
A: 81%

Q: What about the kinase still bound, per cent of control [9] of the same molecule?
A: 99%

Q: And the kinase still bound, per cent of control [10]?
A: 100%

Q: And the kinase still bound, per cent of control [11]?
A: 84%

Q: What about the kinase still bound, per cent of control [12] of the same molecule?
A: 100%

Q: And the kinase still bound, per cent of control [13]?
A: 100%

Q: What about the kinase still bound, per cent of control [14] of the same molecule?
A: 92%

Q: And the kinase still bound, per cent of control [15]?
A: 92%

Q: What about the kinase still bound, per cent of control [16] of the same molecule?
A: 90%

Q: And the kinase still bound, per cent of control [17]?
A: 86%

Q: What about the kinase still bound, per cent of control [18] of the same molecule?
A: 92%

Q: What about the kinase still bound, per cent of control [19] of the same molecule?
A: 97%

Q: What about the kinase still bound, per cent of control [20] of the same molecule?
A: 100%

Q: What about the kinase still bound, per cent of control [21] of the same molecule?
A: 100%

Q: What about the kinase still bound, per cent of control [22] of the same molecule?
A: 92%

Q: And the kinase still bound, per cent of control [23]?
A: 100%

Q: And the kinase still bound, per cent of control [24]?
A: 100%

Q: And the kinase still bound, per cent of control [25]?
A: 100%

Q: And the kinase still bound, per cent of control [26]?
A: 15%

Q: And the kinase still bound, per cent of control [27]?
A: 100%

Q: And the kinase still bound, per cent of control [28]?
A: 84%

Q: And the kinase still bound, per cent of control [29]?
A: 85%

Q: What about the kinase still bound, per cent of control [30] of the same molecule?
A: 78%

Q: What about the kinase still bound, per cent of control [31] of the same molecule?
A: 77%

Q: And the kinase still bound, per cent of control [32]?
A: 100%

Q: And the kinase still bound, per cent of control [33]?
A: 60%

Q: What about the kinase still bound, per cent of control [34] of the same molecule?
A: 100%

Q: And the kinase still bound, per cent of control [35]?
A: 100%

Q: What about the kinase still bound, per cent of control [36] of the same molecule?
A: 100%

Q: What about the kinase still bound, per cent of control [37] of the same molecule?
A: 100%

Q: What about the kinase still bound, per cent of control [38] of the same molecule?
A: 100%

Q: What about the kinase still bound, per cent of control [39] of the same molecule?
A: 97%

Q: What about the kinase still bound, per cent of control [40] of the same molecule?
A: 4.9%

Q: What about the kinase still bound, per cent of control [41] of the same molecule?
A: 100%

Q: What about the kinase still bound, per cent of control [42] of the same molecule?
A: 100%

Q: Which kinase still bound, per cent of control [1] does the source give for `COc1cc(N2CCC(O)CC2)ccc1Nc1ncc2c(n1)N1CCc3cccc(c31)C(=O)N2C` here?
A: 100%

Q: And the kinase still bound, per cent of control [2]?
A: 100%

Q: What about the kinase still bound, per cent of control [3] of the same molecule?
A: 85%

Q: And the kinase still bound, per cent of control [4]?
A: 77%

Q: And the kinase still bound, per cent of control [5]?
A: 94%

Q: What about the kinase still bound, per cent of control [6] of the same molecule?
A: 83%

Q: What about the kinase still bound, per cent of control [7] of the same molecule?
A: 79%

Q: What about the kinase still bound, per cent of control [8] of the same molecule?
A: 55%

Q: And the kinase still bound, per cent of control [9]?
A: 70%

Q: And the kinase still bound, per cent of control [10]?
A: 100%

Q: What about the kinase still bound, per cent of control [11] of the same molecule?
A: 36%

Q: And the kinase still bound, per cent of control [12]?
A: 84%

Q: And the kinase still bound, per cent of control [13]?
A: 65%

Q: And the kinase still bound, per cent of control [14]?
A: 54%

Q: What about the kinase still bound, per cent of control [15] of the same molecule?
A: 64%

Q: And the kinase still bound, per cent of control [16]?
A: 76%

Q: What about the kinase still bound, per cent of control [17] of the same molecule?
A: 73%

Q: What about the kinase still bound, per cent of control [18] of the same molecule?
A: 93%

Q: And the kinase still bound, per cent of control [19]?
A: 70%

Q: What about the kinase still bound, per cent of control [20] of the same molecule?
A: 91%

Q: What about the kinase still bound, per cent of control [21] of the same molecule?
A: 76%

Q: What about the kinase still bound, per cent of control [22] of the same molecule?
A: 92%

Q: And the kinase still bound, per cent of control [23]?
A: 94%

Q: What about the kinase still bound, per cent of control [24] of the same molecule?
A: 100%

Q: What about the kinase still bound, per cent of control [25] of the same molecule?
A: 100%

Q: And the kinase still bound, per cent of control [26]?
A: 68%

Q: And the kinase still bound, per cent of control [27]?
A: 100%

Q: And the kinase still bound, per cent of control [28]?
A: 92%

Q: And the kinase still bound, per cent of control [29]?
A: 22%

Q: And the kinase still bound, per cent of control [30]?
A: 100%

Q: What about the kinase still bound, per cent of control [31] of the same molecule?
A: 92%

Q: What about the kinase still bound, per cent of control [32] of the same molecule?
A: 100%

Q: And the kinase still bound, per cent of control [33]?
A: 3.2%

Q: What about the kinase still bound, per cent of control [34] of the same molecule?
A: 91%

Q: And the kinase still bound, per cent of control [35]?
A: 48%

Q: What about the kinase still bound, per cent of control [36] of the same molecule?
A: 100%

Q: What about the kinase still bound, per cent of control [37] of the same molecule?
A: 84%

Q: And the kinase still bound, per cent of control [38]?
A: 60%

Q: What about the kinase still bound, per cent of control [39] of the same molecule?
A: 91%

Q: What about the kinase still bound, per cent of control [40] of the same molecule?
A: 5.8%

Q: And the kinase still bound, per cent of control [41]?
A: 70%

Q: What about the kinase still bound, per cent of control [42] of the same molecule?
A: 80%

Reference: the kinase profiling compilation of Christmann-Franck et al. (2016)
